Measurements from article PMC6514978, “Synthesis, Antibacterial Activities, Mode of Action and Acute Toxicity Studies of New Oxazolidinone-Fluoroquinolone Hybrids” (Molecules, 2019).
Converted amounts (≈) assume the structure as drawn.

Columns and labels:
S. aureus (ATCC29213) = experiment: MIC, broth microdilution (CLSI), standard strain; type: cell-based; details: Staphylococcus aureus
Excerpt: (§1) 6 standard strains and 3 clinical isolates were used to the preliminary evaluation of in vitro antibacterial activities of oxazolidinone-fluoroquinolone hybrids. For the further evaluation of hybrids OBP-4 and OBP-5, 263 clinical isolates including S. aureus (46), S. haemolyticus(32), S. epidermidis (10), E. faecalis (72), E. faecium (47), S. pneumoniae (13), H. parasuis (34), S. suis (9), and 8 resistant strains including MRSA, MRSE, CIP-resistant S. aureus and S. haemolyticus, VAN and quinolone-resistant S. pneumoniae, LZD-resistant E. faecalis, LZD/VAN and quinolone-resistant E. faecium were collected and tested.
(§2) Susceptibility testing of oxazolidinone-fluoroquinolone hybrids against various bacteria was performed by the broth microdilution method as outlined by the Clinical and Laboratory Standards Institute (CLSI). Three types of media, including cation-adjusted Mueller Hinton broth, Haemophilus Test Medium and cation-adjusted Mueller Hinton broth that contained 3%–5% lysed horse blood, were used to culture the corresponding bacteria. All compounds including comparator drugs were dissolved in an appropriate solvent at a concentration of 2.048 mg/mL and then serially diluted two-fold to provide the required concentrations. A final inoculum of 5 × 10^5 CFU/mL was used and plates were read after incubation for 16–24 h at 35 °C. […] Standard quality control strains (ATCC) were included throughout. Each determination was repeated in triplicate.

[1] = system: S. pneumoniae (ATCC49619); experiment: MIC, broth microdilution (CLSI), standard strain; type: cell-based; details: Streptococcus pneumoniae
Excerpt: as §1, §2

[2] = system: P. Aeruginosa (ATCC27853); experiment: MIC, broth microdilution (CLSI), standard strain; type: cell-based; details: Pseudomonas aeruginosa, ATCC27853
Excerpt: as §1, §2

E. coli (ATCC25922) = experiment: MIC, broth microdilution (CLSI), standard strain; type: cell-based; details: Escherichia coli, ATCC25922
Excerpt: as §1, §2

[3] = system: H. influenzae (ATCC49247); experiment: MIC, broth microdilution (CLSI), standard strain; type: cell-based; details: Haemophilus influenzae
Excerpt: as §1, §2

E. faecalis (ATCC29212) = experiment: MIC, broth microdilution (CLSI), standard strain; type: cell-based; details: Enterococcus faecalis; E. faecalis (ATCC29212); read-out: MIC
Excerpt: as §1, §2

[4] = system: S. aureus (46) clinical isolates; experiment: Susceptibility of clinical isolates (MIC); type: cell-based, Staphylococcus aureus
Method in brief: (§3)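 Broth microdilution per CLSI in cation-adjusted Mueller Hinton broth, Haemophilus Test Medium, or cation-adjusted MHB with 3%–5% lysed horse blood, as suited to each organism. Final inoculum 5 × 10^5 CFU/mL; plates read after 16–24 h at 35 °C. ATCC QC strains included; triplicate determinations.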

MRSE = experiment: MIC against drug-resistant strain; type: cell-based, S. epidermidis; details: Staphylococcus epidermidis, read-out: MIC
Method in brief: as §3

[5] = system: E. faecalis (72) clinical isolates; experiment: Susceptibility of clinical isolates (MIC); type: cell-based, Enterococcus faecalis
Description: as §2, with “All compounds including comparator drugs were dissolved in an appropriate solvent at a concentration of 2.048 mg/mL and then serially diluted two-fold to provide the required concentrations.” left out

[6] = system: S. haemolyticus (32) clinical isolates; experiment: Susceptibility of clinical isolates (MIC); type: cell-based, Staphylococcus haemolyticus
Method in brief: as §3

MRSA (13B262) = experiment: MIC, broth microdilution (CLSI), clinical isolate; type: cell-based; details: Staphylococcus aureus
Excerpt: as §1, §2

[7] = system: S. agalactiae^R (13B317), levofloxacin-resistant S. agalactiae; experiment: MIC, broth microdilution (CLSI), clinical isolate; type: cell-based; details: Streptococcus agalactiae; levofloxacin-resistant S. agalactiae (13B317)
Excerpt: as §1, §2

[8] = system: LZD and quinolone-resistant E. faecium; experiment: MIC against drug-resistant strain; type: cell-based; details: Enterococcus faecium; E. faecium, LZD and quinolone-resistant; read-out: MIC
Method in brief: as §3

[9] = system: CIP-resistant S. haemolyticus; experiment: MIC against drug-resistant strain; type: cell-based; details: Staphylococcus haemolyticus; S. haemolyticus, CIP-resistant; read-out: MIC
Method in brief: as §3

[10] = system: VAN and quinolone-resistant E. faecium; experiment: MIC against drug-resistant strain; type: cell-based; details: Enterococcus faecium; E. faecium, VAN and quinolone-resistant; read-out: MIC
Method in brief: as §3

[11] = system: VAN and quinolone-resistant S. pneumoniae; experiment: MIC against drug-resistant strain; type: cell-based; details: Streptococcus pneumoniae; S. pneumoniae, VAN and quinolone-resistant; read-out: MIC
Method in brief: as §3

VRE (13B330) = experiment: MIC, broth microdilution (CLSI), clinical isolate; type: cell-based, vancomycin-resistant enterococcus; details: Enterococcus
Excerpt: as §1, §2

[12] = system: LZD-resistant E. faecalis; experiment: microbe, parasite or virus in culture; type: cell-based; details: Enterococcus faecalis
Method in brief: as §3

[13] = system: S. pneumoniae (13) clinical isolates; experiment: Susceptibility of clinical isolates (MIC); type: cell-based, Streptococcus pneumoniae
Method in brief: as §3

[14] = system: E. faecium (47) clinical isolates; experiment: Susceptibility of clinical isolates (MIC); type: cell-based, Enterococcus faecium
Method in brief: as §3

[15] = E. faecalis clinical isolates, CLSI criteria
[16] = Enterococcus faecalis, E. faecalis, 72 clinical isolates
[17] = S. haemolyticus clinical isolates, CLSI criteria
[18] = E. faecium clinical isolates, CLSI criteria

`CC(=O)NC[C@H]1CN(c2ccc(N3CCOCC3)c(F)c2)C(=O)O1` [LZD, linezolid, reference compound] gave an MIC (S. aureus (ATCC29213)) of 4 µg/mL (≈ 11.9 µM), an MIC [1] of 1 µg/mL (≈ 2.96 µM) and an MIC [2] of 128 µg/mL (≈ 379 µM). It also gave an MIC (E. coli (ATCC25922)) of 128 µg/mL (≈ 379 µM), an MIC [3] of 8 µg/mL (≈ 23.7 µM) and an MIC (E. faecalis (ATCC29212)) of 4 µg/mL (≈ 11.9 µM). For the same molecule, the “CLSI %S (susceptible)” value ([4]; S. aureus clinical isolates, CLSI criteria) was 100.0/- %, the MIC50 ([4]; Staphylococcus aureus, S. aureus, 46 clinical isolates, read-out: MIC50) was 2 µg/mL (≈ 5.93 µM) and the MIC90 ([4]; Staphylococcus aureus, S. aureus, 46 clinical isolates, read-out: MIC90) was 2 µg/mL (≈ 5.93 µM). The MIC ([4]; Staphylococcus aureus, S. aureus, 46 clinical isolates, read-out: MIC Range) was 0.5 to 2 µg/mL (≈ 1.48 to 5.93 µM), the MIC (MRSE) was 0.25 µg/mL (≈ 0.741 µM) and the “CLSI %R (resistant)” value [5, 15] was 2.7%. The “CLSI %S (susceptible)” value [5, 15] was 97.3%, the “MIC Range” value ([5]; E. faecalis, 72 clinical isolates) was 0.5 to 8 µg/mL and the MIC50 [5, 16] was 2 µg/mL (≈ 5.93 µM). The MIC90 [5, 16] was 2 µg/mL (≈ 5.93 µM), the “CLSI %R (resistant)” value [6, 17] was 3.8% and the “CLSI %S (susceptible)” value [6, 17] was 96.2%. The MIC50 ([6]; Staphylococcus haemolyticus, S. haemolyticus, 32 clinical isolates, read-out: MIC50) was 0.5 µg/mL (≈ 1.48 µM), the MIC90 ([6]; Staphylococcus haemolyticus, S. haemolyticus, 32 clinical isolates, read-out: MIC90) was 2 µg/mL (≈ 5.93 µM) and the MIC ([6]; Staphylococcus haemolyticus, S. haemolyticus, 32 clinical isolates, read-out: MIC Range) was 0.125 to 8 µg/mL (≈ 0.371 to 23.7 µM). For the same molecule, the MIC (MRSA (13B262)) was 4 µg/mL (≈ 11.9 µM), the MIC [7] was 1 µg/mL (≈ 2.96 µM) and the MIC [8] was 16 µg/mL (≈ 47.4 µM). It also gave an MIC [9] of 8 µg/mL (≈ 23.7 µM), an MIC [10] of 2 µg/mL (≈ 5.93 µM) and an MIC [11] of 0.5 µg/mL (≈ 1.48 µM). The MIC (VRE (13B330)) was 2 µg/mL (≈ 5.93 µM), the MIC [12] was 8 µg/mL (≈ 23.7 µM) and the “CLSI %S (susceptible)” value ([13]; S. pneumoniae clinical isolates, CLSI criteria) was 76.9/- %. For the same molecule, the “MIC Range” value ([13]; S. pneumoniae, 13 clinical isolates) was 0.5 to 4 µg/mL, the MIC50 ([13]; Streptococcus pneumoniae, S. pneumoniae, 13 clinical isolates, read-out: MIC50) was 0.5 µg/mL (≈ 1.48 µM) and the MIC90 ([13]; Streptococcus pneumoniae, S. pneumoniae, 13 clinical isolates, read-out: MIC90) was 0.5 µg/mL (≈ 1.48 µM). For the same molecule, the “CLSI %R (resistant)” value [14, 18] was 13.8%, the “CLSI %S (susceptible)” value [14, 18] was 82.8% and the “MIC Range” value ([14]; E. faecium, 47 clinical isolates) was 0.5 to 16 µg/mL. The MIC50 ([14]; Enterococcus faecium, E. faecium, 47 clinical isolates, read-out: MIC50) was 2 µg/mL (≈ 5.93 µM) and the MIC90 ([14]; Enterococcus faecium, E. faecium, 47 clinical isolates, read-out: MIC90) was 4 µg/mL (≈ 11.9 µM).
